Test results published in PubChem BioAssay AID1963836 (Molecular Pharmacology Branch, DTP, NCI, 2024).

Test system: 857933-349-R-J2-PDC complex spheroid viability
Experiment: Anticancer human tumor 857933-349-R-J2-PDC patient-derived colon adenocarcinoma cell line growth inhibition [POLQ]
Conditions: for IC50: curve of first compound; for viability, T/C: stronger effect = lower value
In short: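 Three-cell-type spheroids modelling solid tumor plus stroma served as the readout system; POL inhibitors were tested individually and in combination, concentration ranges set by clinical Cmax where known.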

[1] = second compound 0.0316 µM, first compound 0.0316 µM
[2] = second compound 0.0316 µM, first compound 0.1 µM
[3] = second compound 0.1 µM, first compound 0.0316 µM
[4] = second compound 0.1 µM, first compound 0.1 µM
[5] = second compound 0.316 µM, first compound 0.0316 µM
[6] = second compound 0.316 µM, first compound 0.1 µM
[7] = second compound 1 µM, first compound 0.0316 µM
[8] = second compound 1 µM, first compound 0.1 µM
[9] = second compound 3.16 µM, first compound 0.0316 µM
[10] = second compound 3.16 µM, first compound 0.1 µM
[11] = second compound 10 µM, first compound 0.0316 µM
[12] = second compound 10 µM, first compound 0.1 µM
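Also: spheroids exposed to compounds for seven days before readout.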

SMILES: Cn1ncnc1[C@H]1c2n[nH]c(=O)c3cc(F)cc(c23)N[C@@H]1c1ccc(F)cc1 + Cc1cccc(N(C)C(=O)C2C(O)CCN2c2nc(C)cc(C(F)(F)F)c2C#N)c1
- IC50 (second compound 0.0316 µM): > 0.1 µM
- IC50 (second compound 0.1 µM): > 0.1 µM
- IC50 (second compound 0.316 µM): > 0.1 µM
- IC50 (second compound 1 µM): > 0.1 µM
- IC50 (second compound 3.16 µM): > 0.1 µM
- IC50 (second compound 10 µM): > 0.1 µM
- viability, T/C (second compound 0.0316 µM, first compound 0.000316 µM): 101%
- viability, T/C (second compound 0.0316 µM, first compound 0.001 µM): 115%
- viability, T/C (second compound 0.0316 µM, first compound 0.00316 µM): 114%
- viability, T/C (second compound 0.0316 µM, first compound 0.01 µM): 125%
- viability, T/C [1]: 98.2%
- viability, T/C [2]: 97.3%
- viability, T/C (second compound 0.1 µM, first compound 0.000316 µM): 110%
- viability, T/C (second compound 0.1 µM, first compound 0.001 µM): 116%
- viability, T/C (second compound 0.1 µM, first compound 0.00316 µM): 120%
- viability, T/C (second compound 0.1 µM, first compound 0.01 µM): 80%
- viability, T/C [3]: 101%
- viability, T/C [4]: 103%
- viability, T/C (second compound 0.316 µM, first compound 0.000316 µM): 97.5%
- viability, T/C (second compound 0.316 µM, first compound 0.001 µM): 102%
- viability, T/C (second compound 0.316 µM, first compound 0.00316 µM): 95.8%
- viability, T/C (second compound 0.316 µM, first compound 0.01 µM): 86.2%
- viability, T/C [5]: 101%
- viability, T/C [6]: 99.8%
- viability, T/C (second compound 1 µM, first compound 0.000316 µM): 85.1%
- viability, T/C (second compound 1 µM, first compound 0.001 µM): 96.5%
- viability, T/C (second compound 1 µM, first compound 0.00316 µM): 80.9%
- viability, T/C (second compound 1 µM, first compound 0.01 µM): 82%
- viability, T/C [7]: 103%
- viability, T/C [8]: 95.2%
- viability, T/C (second compound 3.16 µM, first compound 0.000316 µM): 96.4%
- viability, T/C (second compound 3.16 µM, first compound 0.001 µM): 116%
- viability, T/C (second compound 3.16 µM, first compound 0.00316 µM): 92.7%
- viability, T/C (second compound 3.16 µM, first compound 0.01 µM): 108%
- viability, T/C [9]: 96.2%
- viability, T/C [10]: 97.1%
- viability, T/C (second compound 10 µM, first compound 0.000316 µM): 91%
- viability, T/C (second compound 10 µM, first compound 0.001 µM): 115%
- viability, T/C (second compound 10 µM, first compound 0.00316 µM): 108%
- viability, T/C (second compound 10 µM, first compound 0.01 µM): 112%
- viability, T/C [11]: 110%
- viability, T/C [12]: 104%

SMILES: CC(C)n1c(=O)n(C)c2cnc3cc(F)c(-c4ccc(OCCCN5CCCCC5)nc4)cc3c21 + Nc1ccc(C#CCN(C(=O)Cc2ncc(C(F)(F)F)cc2C(F)(F)F)c2ccc(F)cc2)nn1
- IC50 (second compound 0.0316 µM): > 10 µM
- IC50 (second compound 0.1 µM): > 10 µM
- IC50 (second compound 0.316 µM): > 10 µM
- IC50 (second compound 1 µM): > 10 µM
- IC50 (second compound 3.16 µM): > 10 µM
- IC50 (second compound 10 µM): > 10 µM
- viability, T/C [1]: 88.3%
- viability, T/C [2]: 89%
- viability, T/C (second compound 0.0316 µM, first compound 0.316 µM): 103%
- viability, T/C (second compound 0.0316 µM, first compound 1 µM): 106%
- viability, T/C (second compound 0.0316 µM, first compound 3.16 µM): 93.7%
- viability, T/C (second compound 0.0316 µM, first compound 10 µM): 98.8%
- viability, T/C [3]: 99.5%
- viability, T/C [4]: 109%
- viability, T/C (second compound 0.1 µM, first compound 0.316 µM): 111%
- viability, T/C (second compound 0.1 µM, first compound 1 µM): 116%
- viability, T/C (second compound 0.1 µM, first compound 3.16 µM): 118%
- viability, T/C (second compound 0.1 µM, first compound 10 µM): 100%
- viability, T/C [5]: 108%
- viability, T/C [6]: 106%
- viability, T/C (second compound 0.316 µM, first compound 0.316 µM): 103%
- viability, T/C (second compound 0.316 µM, first compound 1 µM): 98.7%
- viability, T/C (second compound 0.316 µM, first compound 3.16 µM): 105%
- viability, T/C (second compound 0.316 µM, first compound 10 µM): 98%
- viability, T/C [7]: 107%
- viability, T/C [8]: 95.9%
- viability, T/C (second compound 1 µM, first compound 0.316 µM): 107%
- viability, T/C (second compound 1 µM, first compound 1 µM): 114%
- viability, T/C (second compound 1 µM, first compound 3.16 µM): 95.2%
- viability, T/C (second compound 1 µM, first compound 10 µM): 84.7%
- viability, T/C [9]: 91.7%
- viability, T/C [10]: 99.9%
- viability, T/C (second compound 3.16 µM, first compound 0.316 µM): 103%
- viability, T/C (second compound 3.16 µM, first compound 1 µM): 115%
- viability, T/C (second compound 3.16 µM, first compound 3.16 µM): 111%
- viability, T/C (second compound 3.16 µM, first compound 10 µM): 91.5%
- viability, T/C [11]: 86.4%
- viability, T/C [12]: 102%
- viability, T/C (second compound 10 µM, first compound 0.316 µM): 114%
- viability, T/C (second compound 10 µM, first compound 1 µM): 89.3%
- viability, T/C (second compound 10 µM, first compound 3.16 µM): 98.1%
- viability, T/C (second compound 10 µM, first compound 10 µM): 92.6%
